Measured values: patent US20020187514A1 (priority 1999, published 2002)

Key:
[1] = tested on: Potassium Channel, Ca2+ Act., VS; test: Potassium Channel, Ca2+ Act., VS; [125I]Charybdotoxin; format: binding; settings: 10^−5 M
[2] = biological target: T1, Muscarinic, M4 (Homo sapiens, UniProt P08173); test: biochemical; format: binding; settings: read-out: Pass 1 (10^−5 M) % Inhibition
T1 construct: expressed in transfected cells

[3] = tested on: Melatonin; test: Melatonin; [125I]-2-Iodomelatonin; format: binding; settings: 10^−5 M
[4] = tested on: Ahenylate Cyclase, Forskolin; test: Ahenylate Cyclase, Forskolin; [3H]Forskolin; format: binding; settings: 10^−5 M
[5] = biological target: Opiate, Mu (UniProt P33535); format: binding
[6] = biological target: Muscarinic, M3 (Homo sapiens, UniProt P20309); test: biochemical; settings: read-out: Pass 1 (10^−5 M) % Inhibition
[7] = tested on: Galanin; test: Galanin; [I125]Galanin; format: binding
[8] = biological target: Muscarinic, M1 (Homo sapiens, UniProt P11229); test: biochemical; settings: read-out: Pass 1 (10^−5 M) % Inhibition
[9] = biological target: Adrenergic, Beta 2 (Homo sapiens, UniProt P07550); test: biochemical; format: binding; settings: read-out: Pass 1 (10^−5 M) % Inhibition
Sequence of Adrenergic, Beta 2 (P07550 whole entry): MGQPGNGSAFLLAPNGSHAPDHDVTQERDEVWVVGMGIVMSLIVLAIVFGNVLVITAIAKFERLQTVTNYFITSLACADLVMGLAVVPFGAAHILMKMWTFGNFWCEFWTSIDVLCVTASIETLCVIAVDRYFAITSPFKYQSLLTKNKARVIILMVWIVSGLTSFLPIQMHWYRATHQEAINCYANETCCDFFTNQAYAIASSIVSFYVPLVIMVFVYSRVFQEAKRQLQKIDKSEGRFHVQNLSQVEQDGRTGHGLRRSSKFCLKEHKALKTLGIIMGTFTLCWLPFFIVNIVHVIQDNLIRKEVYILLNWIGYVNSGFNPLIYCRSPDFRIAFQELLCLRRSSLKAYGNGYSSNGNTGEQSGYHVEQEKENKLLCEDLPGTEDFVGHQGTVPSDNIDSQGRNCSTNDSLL

[10] = biological target: T2, Sigma 1 (Cavia porcellus, UniProt Q60492); test: Sigma 1; [3H]-(+)-Pentazocine; format: binding, guinea pig
T2 construct: Fresh guinea pig whole brain was obtained following decapitation; from tissue; host or cells: guinea pig whole brain membranes
T2 sequence (Q60492 whole entry): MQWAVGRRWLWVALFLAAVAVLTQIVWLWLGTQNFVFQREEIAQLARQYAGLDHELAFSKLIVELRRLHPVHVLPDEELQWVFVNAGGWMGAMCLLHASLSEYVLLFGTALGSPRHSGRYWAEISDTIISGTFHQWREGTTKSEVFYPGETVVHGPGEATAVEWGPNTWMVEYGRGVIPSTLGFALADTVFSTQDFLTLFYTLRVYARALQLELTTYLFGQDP

[11] = tested on: Imidazoline, I2, central; test: Imidazoline, I2, central; [3H]2-BFI; format: binding; settings: 10^−5 M
[12] = biological target: Angiotensin II, ATI (Homo sapiens, UniProt P30556); test: Angiotensin II, ATI (Human); [125I]-(Sar1-Ile8) Angiotensin; format: binding; settings: read-out: Pass 1 (10^−5 M) % Inhibition
Sequence of Angiotensin II, ATI (P30556 whole entry): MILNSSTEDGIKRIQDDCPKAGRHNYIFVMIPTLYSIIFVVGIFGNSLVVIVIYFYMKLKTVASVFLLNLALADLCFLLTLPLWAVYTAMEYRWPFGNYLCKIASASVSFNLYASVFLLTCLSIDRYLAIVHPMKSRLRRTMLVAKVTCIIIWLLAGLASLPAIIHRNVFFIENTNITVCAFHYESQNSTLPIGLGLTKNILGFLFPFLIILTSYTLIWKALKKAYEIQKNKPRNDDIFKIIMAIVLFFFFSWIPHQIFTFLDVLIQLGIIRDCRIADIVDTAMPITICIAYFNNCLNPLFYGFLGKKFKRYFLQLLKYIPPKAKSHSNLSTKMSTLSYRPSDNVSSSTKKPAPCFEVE

[13] = tested on: Calcium Channel, Type N; format: binding
[14] = biological target: T3, Elastase (Homo sapiens, UniProt P08246); test: Elastase (Human); substrate MeO-Suc-Ala-Ala-Pro-Val-pNA; format: biochemical; settings: read-out: Pass 1 (10^−5 M) % Inhibition
T3 construct: from human cell lines; endogenous in cells

[15] = tested on: Glutamate, NMDA, Phencyclidine Site; test: Glutamate, NMDA, Phencyclidine Site; [3H]TCP; format: binding; settings: 10^−5 M
[16] = tested on: GABA A, Agonist Site; format: binding
[17] = biological target: Adenosine, A2 (UniProt P30543); test: Adenosine, A2; [3H]CGS21680; format: binding
Sequence of Adenosine, A2 (P30543 whole entry): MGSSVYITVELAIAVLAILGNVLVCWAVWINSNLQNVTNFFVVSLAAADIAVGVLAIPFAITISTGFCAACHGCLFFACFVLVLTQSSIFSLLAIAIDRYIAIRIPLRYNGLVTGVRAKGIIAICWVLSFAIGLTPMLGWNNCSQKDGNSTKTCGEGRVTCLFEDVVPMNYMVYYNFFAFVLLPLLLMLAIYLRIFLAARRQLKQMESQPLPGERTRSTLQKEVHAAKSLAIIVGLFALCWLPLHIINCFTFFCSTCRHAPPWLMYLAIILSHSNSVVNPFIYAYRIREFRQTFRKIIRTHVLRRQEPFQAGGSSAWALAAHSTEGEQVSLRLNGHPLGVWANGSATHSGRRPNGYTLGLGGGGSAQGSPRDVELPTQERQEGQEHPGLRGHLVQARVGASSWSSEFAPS

[18] = tested on: Histamine, H3; test: Histamine, H3; [3H]N-a-MeHistamine; format: binding; settings: 10^−5 M
[19] = tested on: Glutamate, MK-801 Site; test: Glutamate, MK-801 Site; [3H]MK-801; format: binding; settings: 10^−5 M
[20] = tested on: Thyrotropin Releasing Hormone, TRH; test: Thyrotropin Releasing Hormone, TRH; [3H]-(3MeHis2)TRH; format: binding; settings: 10^−5 M
[21] = biological target: T4, Monoamine Oxidase A, Peripheral (Rattus norvegicus, UniProt P21396); test: biochemical; settings: read-out: Pass 1 (10^−5 M) % Inhibition
T4 construct: no other source notation after assay name denotes animal cell or animal tissue source; from tissue

[22] = tested on: Protein Tyrosine Phosphatase, PTP-B; test: Protein Tyrosine Phosphatase, PTP-B (Human); substrate pNPP; format: biochemical; settings: 10^−5 M; footnote: not confirmed in QA/QC follow-up
[23] = biological target: T5, Histamine, H2 (Cavia porcellus, UniProt P47747); test: biochemical; format: binding; settings: read-out: Pass 1 (10^−5 M) % Inhibition
T5 construct: no other source notation after assay name denotes animal cell or animal tissue source; from tissue; host or cells: animal cell or animal tissue, not specified

[24] = biological target: T6, Adenosine, A2A (Homo sapiens, UniProt P29274); test: biochemical; format: binding; settings: read-out: Pass 1 (10^−5 M) % Inhibition
T6 construct: expressed in transfected cells
T6 sequence (P29274 whole entry): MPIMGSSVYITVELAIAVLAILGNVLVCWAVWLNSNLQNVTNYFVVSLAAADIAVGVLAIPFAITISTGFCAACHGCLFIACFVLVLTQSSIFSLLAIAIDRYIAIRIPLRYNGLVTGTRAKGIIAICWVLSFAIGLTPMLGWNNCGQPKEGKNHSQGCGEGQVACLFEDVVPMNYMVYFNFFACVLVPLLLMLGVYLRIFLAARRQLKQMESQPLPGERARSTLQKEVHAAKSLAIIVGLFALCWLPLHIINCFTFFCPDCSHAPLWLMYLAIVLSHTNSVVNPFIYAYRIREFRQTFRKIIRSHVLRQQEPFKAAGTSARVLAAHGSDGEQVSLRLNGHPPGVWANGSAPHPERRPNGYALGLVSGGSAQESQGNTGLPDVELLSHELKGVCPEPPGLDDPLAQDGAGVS

[25] = biological target: Vasopressin, V1A (Homo sapiens, UniProt P37288); test: Vasopressin, V1A (Human); [125I]-Via Antagonist; format: binding; settings: read-out: Pass 1 (10^−5 M) % Inhibition
[26] = biological target: T7, Dopamine, D2s (Homo sapiens, UniProt P14416); test: Dopamine, D2s (Human Recombinant); [3H]-Spiperone; format: binding; settings: read-out: Pass 1 (10^−5 M) % Inhibition
T7 construct: expressed in transfected cells

[27] = tested on: Oxytocin; format: binding; settings: 10^−5 M
[28] = biological target: T8, Dopamine, D5 (Homo sapiens, UniProt P21918); test: biochemical; format: binding; settings: read-out: Pass 1 (10^−5 M) % Inhibition
T8 construct: expressed in transfected cells
T8 sequence (P21918 whole entry): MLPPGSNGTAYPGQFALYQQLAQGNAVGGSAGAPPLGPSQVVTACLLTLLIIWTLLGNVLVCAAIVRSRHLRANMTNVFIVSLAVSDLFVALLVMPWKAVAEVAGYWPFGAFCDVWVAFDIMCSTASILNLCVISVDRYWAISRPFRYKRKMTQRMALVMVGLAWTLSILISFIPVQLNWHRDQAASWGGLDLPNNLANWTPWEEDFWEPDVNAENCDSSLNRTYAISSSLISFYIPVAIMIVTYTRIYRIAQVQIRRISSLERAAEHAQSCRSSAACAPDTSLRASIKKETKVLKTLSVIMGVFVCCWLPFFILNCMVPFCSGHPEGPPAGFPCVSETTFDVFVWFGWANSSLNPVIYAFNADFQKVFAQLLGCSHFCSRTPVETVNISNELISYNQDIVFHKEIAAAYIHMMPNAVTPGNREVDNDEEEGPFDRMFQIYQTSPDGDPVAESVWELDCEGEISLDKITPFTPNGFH

[29] = tested on: Glutamate, Chloride Dependent Site; test: Glutamate, Chloride Dependent Site; [3H]Glutamic Acid; format: binding; settings: 10^−5 M
[30] = biological target: Complement C5a (Homo sapiens, UniProt P21730); test: Complement C5a (Human); [125I]BH-rC5a; format: binding; settings: read-out: Pass 1 (10^−5 M) % Inhibition
Sequence of Complement C5a (P21730 whole entry): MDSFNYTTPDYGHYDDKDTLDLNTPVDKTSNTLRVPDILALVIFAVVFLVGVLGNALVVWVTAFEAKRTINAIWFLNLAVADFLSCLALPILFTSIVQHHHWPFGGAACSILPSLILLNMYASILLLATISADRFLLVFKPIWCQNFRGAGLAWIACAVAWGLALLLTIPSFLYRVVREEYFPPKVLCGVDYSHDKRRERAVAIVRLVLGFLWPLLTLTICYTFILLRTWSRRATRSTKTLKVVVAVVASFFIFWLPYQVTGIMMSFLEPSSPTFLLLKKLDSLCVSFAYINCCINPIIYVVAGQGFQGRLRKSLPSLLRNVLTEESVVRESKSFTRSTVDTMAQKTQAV

[31] = tested on: Estrogen; test: Estrogen; [125I]3,17B-Estradiol, 16a; format: binding; settings: 10^−5 M
[32] = biological target: Serotonin Transporter (Homo sapiens, UniProt P31645); test: biochemical; settings: read-out: Pass 1 (10^−5 M) % Inhibition
Sequence of Serotonin Transporter (P31645 whole entry): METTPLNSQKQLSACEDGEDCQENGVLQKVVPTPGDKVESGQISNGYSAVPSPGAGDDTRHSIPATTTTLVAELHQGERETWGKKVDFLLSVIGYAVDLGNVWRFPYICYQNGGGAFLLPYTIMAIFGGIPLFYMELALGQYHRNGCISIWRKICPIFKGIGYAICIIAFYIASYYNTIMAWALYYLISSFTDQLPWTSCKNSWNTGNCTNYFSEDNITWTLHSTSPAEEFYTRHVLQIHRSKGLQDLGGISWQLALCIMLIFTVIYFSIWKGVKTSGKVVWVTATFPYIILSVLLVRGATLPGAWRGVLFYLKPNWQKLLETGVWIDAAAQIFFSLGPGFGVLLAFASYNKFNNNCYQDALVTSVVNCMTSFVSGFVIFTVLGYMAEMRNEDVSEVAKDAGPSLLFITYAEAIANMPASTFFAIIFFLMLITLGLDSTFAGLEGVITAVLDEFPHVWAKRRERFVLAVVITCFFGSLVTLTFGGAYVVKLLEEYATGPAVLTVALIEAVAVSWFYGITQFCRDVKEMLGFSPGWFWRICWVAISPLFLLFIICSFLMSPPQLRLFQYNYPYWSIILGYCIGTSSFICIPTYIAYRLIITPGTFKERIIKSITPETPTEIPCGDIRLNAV

[33] = biological target: Norepinephrine Transporter (Rattus norvegicus, UniProt Q9WTR4); test: biochemical; format: binding; settings: read-out: Pass 1 (10^−5 M) % Inhibition
[34] = tested on: Potassium Channel, Ca2+ Act., VI; test: Potassium Channel, Ca2+ Act., VI; [125I]Apamin; format: binding; settings: 10^−5 M
[35] = biological target: T9, Serotonin, 5HT5A (Homo sapiens, UniProt P47898); test: biochemical; format: binding; settings: read-out: Pass 1 (10^−5 M) % Inhibition
T9 construct: expressed in transfected cells
T9 sequence (P47898 whole entry): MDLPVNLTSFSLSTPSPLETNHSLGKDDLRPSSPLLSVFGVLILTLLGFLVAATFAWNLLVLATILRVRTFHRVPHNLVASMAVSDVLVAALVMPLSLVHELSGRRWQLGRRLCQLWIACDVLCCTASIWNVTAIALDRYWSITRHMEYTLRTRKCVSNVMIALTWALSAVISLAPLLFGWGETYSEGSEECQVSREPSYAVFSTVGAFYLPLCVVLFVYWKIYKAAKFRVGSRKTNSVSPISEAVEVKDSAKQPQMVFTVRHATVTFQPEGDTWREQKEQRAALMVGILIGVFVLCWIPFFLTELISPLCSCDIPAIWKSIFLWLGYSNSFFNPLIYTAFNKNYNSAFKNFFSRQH

[36] = biological target: Adrenergic, Alpha 1B (UniProt P15823); test: Adrenergic, Alpha 1B; [3H]-7-MeOxy-Prazosin; format: binding
Sequence of Adrenergic, Alpha 1B (P15823 whole entry): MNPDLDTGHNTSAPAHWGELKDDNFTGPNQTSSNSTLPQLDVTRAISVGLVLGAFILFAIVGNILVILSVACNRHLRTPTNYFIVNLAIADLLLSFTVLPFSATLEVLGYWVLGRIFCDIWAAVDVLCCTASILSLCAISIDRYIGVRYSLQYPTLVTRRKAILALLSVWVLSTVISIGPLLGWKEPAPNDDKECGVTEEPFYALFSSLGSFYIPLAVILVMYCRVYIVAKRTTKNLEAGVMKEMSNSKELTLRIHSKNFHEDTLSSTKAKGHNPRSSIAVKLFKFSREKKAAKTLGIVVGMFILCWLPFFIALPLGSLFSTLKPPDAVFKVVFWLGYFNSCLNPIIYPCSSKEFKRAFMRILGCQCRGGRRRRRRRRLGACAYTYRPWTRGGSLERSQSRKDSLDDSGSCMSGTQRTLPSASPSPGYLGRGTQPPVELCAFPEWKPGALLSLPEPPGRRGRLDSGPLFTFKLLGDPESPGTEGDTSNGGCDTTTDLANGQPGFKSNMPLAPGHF

[37] = tested on: Cholecystokinin, CCK2 (CCKB); test: Cholecystokinin, CCK2 (CCKB); [125I]CCK-8; format: binding; settings: 10^−5 M
[38] = biological target: Adenosine, A1 (UniProt P25099); test: Adenosine, A1; [3H]CPX; format: binding; settings: 10^−5 M
Sequence of Adenosine, A1 (P25099 whole entry, looked up): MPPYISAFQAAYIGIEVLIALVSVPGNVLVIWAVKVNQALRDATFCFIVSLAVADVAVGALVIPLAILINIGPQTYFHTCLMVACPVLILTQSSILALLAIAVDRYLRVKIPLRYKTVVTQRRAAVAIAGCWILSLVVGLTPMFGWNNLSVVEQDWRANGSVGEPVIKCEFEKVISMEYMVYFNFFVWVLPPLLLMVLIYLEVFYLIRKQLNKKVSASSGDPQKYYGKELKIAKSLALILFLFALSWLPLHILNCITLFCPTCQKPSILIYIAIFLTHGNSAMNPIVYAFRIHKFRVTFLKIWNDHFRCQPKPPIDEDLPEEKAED

[39] = tested on: Sodium, Site 1; format: binding
[40] = biological target: Serotonin, 5HT2A (Homo sapiens, UniProt P28223); test: biochemical; format: binding; settings: read-out: Pass 1 (10^−5 M) % Inhibition
Sequence of Serotonin, 5HT2A (P28223 whole entry): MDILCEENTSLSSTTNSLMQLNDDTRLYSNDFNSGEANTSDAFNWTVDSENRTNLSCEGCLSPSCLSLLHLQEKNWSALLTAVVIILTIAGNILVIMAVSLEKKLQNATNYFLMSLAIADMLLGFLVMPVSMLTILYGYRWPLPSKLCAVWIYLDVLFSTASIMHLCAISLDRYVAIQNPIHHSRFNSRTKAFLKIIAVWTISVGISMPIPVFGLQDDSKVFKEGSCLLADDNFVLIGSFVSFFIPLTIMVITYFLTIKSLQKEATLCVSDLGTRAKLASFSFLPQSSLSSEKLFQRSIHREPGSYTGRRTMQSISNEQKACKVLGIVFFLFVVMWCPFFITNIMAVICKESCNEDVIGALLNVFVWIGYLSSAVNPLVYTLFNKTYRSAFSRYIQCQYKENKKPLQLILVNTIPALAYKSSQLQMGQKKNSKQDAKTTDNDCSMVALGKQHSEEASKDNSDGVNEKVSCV

[41] = tested on: Serotonin, 5HT1A; format: binding
[42] = tested on: Glutamate, Kainate Site; test: Glutamate, Kainate Site; [3H]Kainic acid; format: binding; settings: 10^−5 M

With `COC(=O)[C@H]1[C@@H](OC(=O)c2ccccc2)C[C@@H]2CC[C@H]1N2C` [cocaine] the “Pass 1 (10^−5 M) % Inhibition” value [1] was 16.63%, the inhibition at 10 µM [2] was 0.42% and the “Pass 1 (10^−5 M) % Inhibition” value [3] was 16.13%. For the same compound, the “Pass 1 (10^−5 M) % Inhibition” value [4] was 6.27%, the “Pass 1 (10^−5 M) % Inhibition” value [5] was −4.22% and the inhibition at 10 µM [6] was -8.07%. For the same compound, the “Pass 1 (10^−5 M) % Inhibition” value [7] was −14.73%, the inhibition at 10 µM [8] was 23.3% and the inhibition at 10 µM [9] was -15.6%. For the same compound, the Ki [10] was 11.6 µM, the inhibition at 10 µM ([10]; read-out: Pass 1 (10^−5 M) % Inhibition) was 64.7% and the “Pass 1 (10^−5 M) % Inhibition” value [11] was 37.90%. The inhibition at 10 µM [12] was 21.2%, the “Pass 1 (10^−5 M) % Inhibition” value [13] was 11.51% and the inhibition at 10 µM [14] was -11.2%. The “Pass 1 (10^−5 M) % Inhibition” value [15] was 6.63%, the “Pass 1 (10^−5 M) % Inhibition” value [16] was 5.81% and the “Pass 1 (10^−5 M) % Inhibition” value [17] was 26.30%. For the same compound, the “Pass 1 (10^−5 M) % Inhibition” value [18] was −4.60%, the “Pass 1 (10^−5 M) % Inhibition” value [19] was −2.86% and the “Pass 1 (10^−5 M) % Inhibition” value [20] was −11.95%. For the same compound, the inhibition at 10 µM [21] was 32.8%, the “Pass 1 (10^−5 M) % Inhibition” value [22] was 65.03% and the inhibition at 10 µM [23] was 28.8%. It also gave an inhibition at 10 µM [24] of 25.9%, an inhibition at 10 µM [25] of -4.37% and an inhibition at 10 µM [26] of 30.6%. The “Pass 1 (10^−5 M) % Inhibition” value [27] was −4.65%, the inhibition at 10 µM [28] was 2.44% and the “Pass 1 (10^−5 M) % Inhibition” value [29] was 5.36%. The inhibition at 10 µM [30] was 15.2%, the “Pass 1 (10^−5 M) % Inhibition” value [31] was 12.80% and the inhibition at 10 µM [32] was 97.5%. For the same compound, the inhibition at 10 µM [33] was 60%, the “Pass 1 (10^−5 M) % Inhibition” value [34] was 11.04% and the inhibition at 10 µM [35] was 12%. For the same compound, the “Pass 1 (10^−5 M) % Inhibition” value [36] was −6.30%, the “Pass 1 (10^−5 M) % Inhibition” value [37] was −14.06% and the “Pass 1 (10^−5 M) % Inhibition” value [38] was 2.29%. For the same compound, the “Pass 1 (10^−5 M) % Inhibition” value [39] was 2.74%, the inhibition at 10 µM [40] was 23.4% and the “Pass 1 (10^−5 M) % Inhibition” value [41] was 0.52%. The “Pass 1 (10^−5 M) % Inhibition” value [42] was 1.95%.
